# Experimental data taken from US10023558B2, “Compounds” (CHIESI FARMACEUTICI S.P.A., priority 2016, dated 2018).
# Target: T1, human neutrophil elastase (HNE) (Homo sapiens, UniProt P08246)
# T1 construct: purchased Sigma E8140
# T1 sequence (P08246 30-247 limits assumed): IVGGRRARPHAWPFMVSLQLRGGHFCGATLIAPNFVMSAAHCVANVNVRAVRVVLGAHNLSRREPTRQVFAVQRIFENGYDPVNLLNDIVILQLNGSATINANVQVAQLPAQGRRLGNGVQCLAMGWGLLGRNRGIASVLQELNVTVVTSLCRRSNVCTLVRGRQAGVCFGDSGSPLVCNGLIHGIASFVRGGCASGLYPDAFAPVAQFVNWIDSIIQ
# Experiment: HNE Enzyme Assay (fluorogenic peptide substrate MeOSuc-Ala-Ala-Pro-Val-AMC)
# Format: biochemical
# Details: human leukocyte elastase 0.00072 U/mL, substrate 100 μM, 25° C., 30 minutes, at least two separate experiments; read-out: HNE inhibition (IC50 values)
# Method in brief: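 Human leukocyte elastase (0.00072 U/mL) with 100 μM MeOSuc-AAPV-AMC in Tris pH 7.5 buffer with NaCl, CaCl2, Brij-35, 1% DMSO, 30 min at 25° C, stopped with soybean trypsin inhibitor. AMC fluorescence (ex 380/em 460 nm); IC50 from concentration-response as % inhibition of control, at least two experiments.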
row,IC50,Compound
1,< 1 nM,"Cc1c(-c2ccnn2-c2ccc(C#N)cc2)n(C(=O)NC(C)(C)c2ncc(C[N+](C)(C)C)o2)c(=O)n1-c1cccc(C(F)(F)F)c1 [Example 78, [2-(1-{[5-[2-(4-Cyano-phenyl)-2H-pyrazol-3-yl]-4-methyl-2-oxo-3-(3-trifluoromethyl-phenyl)-2,3-dihydro-imidazole-1-carbonyl]-amino}-1-methyl-ethyl)-oxazol-5-ylmethyl]-trimethyl-ammonium benzene sulfonate]"
2,< 1 nM,"Cc1c(-c2ccnn2-c2ccc(C#N)cc2)n(C(=O)NC2(c3ncc(C[N+](C)(C)C)o3)CC2)c(=O)n1-c1cccc(C(F)(F)F)c1 [Example 79, [2-(1-{[5-[2-(4-Cyano-phenyl)-2H-pyrazol-3-yl]-4-methyl-2-oxo-3-(3-trifluoromethyl-phenyl)-2,3-dihydro-imidazole-1-carbonyl]-amino}-cyclopropyl)-oxazol-5-ylmethyl]-trimethyl-ammonium benzene sulfonate]"
3,1 to 10 nM,"Cc1c(-c2ccnn2-c2ccc(C#N)cc2)n(C(=O)N[C@H]2CC[C@@H](C(=O)NCC[N+](C)(C)C)CC2)c(=O)n1-c1cccc(C(F)(F)F)c1 [Example 80, {2-[(Cis-4-{[5-[2-(4-cyano-phenyl)-2H-pyrazol-3-yl]-4-methyl-2-oxo-3-(3-trifluoromethyl-phenyl)-2,3-dihydro-imidazole-1-carbonyl]-amino}-cyclohexanecarbonyl)-amino]-ethyl}-trimethyl-ammonium benzene sulfonate]"
4,< 1 nM,"Cc1c(-c2ccnn2-c2ccc(C#N)cc2)n(C(=O)N[C@H]2CC[C@H](C(=O)OCC[N+](C)(C)C)CC2)c(=O)n1-c1cccc(C(F)(F)F)c1 [Example 82, [2-(Trans-4-{[5-[2-(4-cyano-phenyl)-2H-pyrazol-3-yl]-4-methyl-2-oxo-3-(3-trifluoromethyl-phenyl)-2,3-dihydro-imidazole-1-carbonyl]-amino}-cyclohexanecarbonyloxy)-ethyl]-trimethyl-ammonium benzene sulfonate]"
5,< 1 nM,"Cc1c(-c2ccnn2-c2ccc(C#N)cc2)n(C(=O)N[C@H]2C[C@H](C(=O)NCC[N+](C)(C)C)C2)c(=O)n1-c1cccc(C(F)(F)F)c1 [Example 83, {2-[(Trans-3-{[5-[2-(4-cyano-phenyl)-2H-pyrazol-3-yl]-4-methyl-2-oxo-3-(3-trifluoromethyl-phenyl)-2,3-dihydro-imidazole-1-carbonyl]-amino}-cyclobutanecarbonyl)-amino]-ethyl}-trimethyl-ammonium benzene sulfonate]"
6,< 1 nM,"Cc1c(-c2ccnn2-c2ccc(C#N)cc2)n(C(=O)NC2(C)CCN(C(=O)C[N+](C)(C)C)CC2)c(=O)n1-c1cccc(C(F)(F)F)c1 [Example 84, [2-(4-{[5-[2-(4-Cyano-phenyl)-2H-pyrazol-3-yl]-4-methyl-2-oxo-3-(3-trifluoromethyl-phenyl)-2,3-dihydro-imidazole-1-carbonyl]-amino}-4-methyl-piperidin-1-yl)-2-oxo-ethyl]-trimethyl-ammonium benzene sulfonate]"
7,< 1 nM,"Cc1c(-c2ccnn2-c2ccc(C#N)cc2)n(C(=O)N[C@H]2CC[C@H](CNC(=O)C[N+](C)(C)C)CC2)c(=O)n1-c1cccc(C(F)(F)F)c1 [Example 86, {[(Trans-4-{[5-[2-(4-cyano-phenyl)-2H-pyrazol-3-yl]-4-methyl-2-oxo-3-(3-trifluoromethyl-phenyl)-2,3-dihydro-imidazole-1-carbonyl]-amino}-cyclohexylmethyl)-carbamoyl]-methyl}-trimethyl-ammonium benzene sulfonate]"
8,< 1 nM,"Cc1c(-c2ccnn2-c2ccc(C#N)cc2)n(C(=O)N[C@H]2CC[C@H](NC(=O)C[N+](C)(C)C)CC2)c(=O)n1-c1cccc(C(F)(F)F)c1 [Example 87, [(Trans-4-{[5-[2-(4-cyano-phenyl)-2H-pyrazol-3-yl]-4-methyl-2-oxo-3-(3-trifluoromethyl-phenyl)-2,3-dihydro-imidazole-1-carbonyl]-amino}-cyclohexylcarbamoyl)-methyl]-trimethyl-ammonium benzene sulfonate]"
